Test results published in patent US11173175B2, “Uridine diphosphate compounds as mobilizers of hematopoietic progenitor cells” (University of Pittsburgh—Of the Commonwealth System of …, priority 2012, dated 2021).
Entries after “also recorded” stand apart in the source; their conditions may differ.

Experiments:
[1] = target: T1, P2Y14 receptor (Homo sapiens, UniProt Q15391); conditions: cited from earlier work
T1 sequence (Q15391 1-338): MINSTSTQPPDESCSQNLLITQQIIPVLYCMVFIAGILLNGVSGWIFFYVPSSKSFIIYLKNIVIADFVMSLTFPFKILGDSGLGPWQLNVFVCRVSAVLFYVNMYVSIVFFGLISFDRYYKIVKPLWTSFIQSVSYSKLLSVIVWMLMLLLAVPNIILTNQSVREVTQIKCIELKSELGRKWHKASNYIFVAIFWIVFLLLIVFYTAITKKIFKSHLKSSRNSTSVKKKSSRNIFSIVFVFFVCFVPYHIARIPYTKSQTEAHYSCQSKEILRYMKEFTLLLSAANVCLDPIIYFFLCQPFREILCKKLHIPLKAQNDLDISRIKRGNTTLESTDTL

[2] = system: LSK cells; test: Chemotaxis assay; assay type: cell-based, mouse; conditions: CXCL12 120 ng/ml; UDP-Glc, UTP, UDP 10 μM; 6 hours
[3] = system: white blood cell (WBC) and lineage-marker expressing cells (CD3, CD11b, and Gr-1); conditions: G-CSFR deficient mice
[4] = target: T1, P2Y14 receptor; conditions: Carter et al. 2009; cited from earlier work
[5] = system: LSK and SLAM LSK cells; test: HSPC mobilization: LSK and SLAM LSK cells quantified by flow cytometry; assay type: in vivo, mice
Experimental: (§1) We used 4-6 weeks old C57BL6 and BALB/C in all the experiments. Mice received subcutaneous injections of UDP-glucose (200 mg/kg, Sigma) dissolved in sterile endotoxin-free PBS. G-CSF (Neupogen, Amgen) was administered daily at a dose of 300 μg/kg subcutaneously for 4 consecutive days as previously described (Broxmeyer et al., 2005). […] Antioxidant, N-acetyl-L-cysteine (Sigma-Aldrich), was administered subcutaneously at 100 mg/kg/day. Bone marrow cells were obtained from both femur and tibia and used for flow cytometry and Western blot analysis. All animal studies were conducted after review by the University of Pittsburgh's Institutional Animal Care and Use Committee and in accordance with the University of Pittsburgh's Policy on the Care, Welfare and Treatment of Laboratory Animals.
Peripheral blood Lin-/Sca-1+/c-Kit+(LSK) and CD150+CD48-(SLAM) LSK cells were phenotyped using the following antibodies: lineage markers PE-Cy7-conjugated anti-CD3, anti-CD4, anti-CD8, anti-CD45R, anti-CD11b, anti-Gr-1, and anti-TER-119 (eBioscience); PE-conjugated anti-Sca-1 (eBioscience); APC-conjugated anti-c-Kit (eBioscience); perCP/Cy5.5-conjugated anti-CD150 (BioLegend); pacific Blue™-conjugated anti-CD48 (BioLegend). […] Mitochondrial superoxide level was measured using MitoSox™ (Invitrogen) within LSK cells, according to manufacturer's instructions.
as §1, with “Mice” for “We used 4-6 weeks old C57BL6 and BALB/C in all the experiments. Mice”, “(10).” for “(Broxmeyer et al., 2005).”

[6] = system: CXCR4; test: CXCR4 expression on LSK and SLAM LSK cells; assay type: in vivo, mice
Experimental: FIG. 14A-14F. […] HSPC mobilization was assessed by measuring the numbers of LSK (upper left panel) and SLAM LSK (upper right panel) cells in peripheral blood. […] Representative images of TRAP staining from each group are shown (bottom panels). […] Shown are obtained from 6-8 weeks old animals. (C) Mice (B6) were injected as described in the legend to FIG. 11A. Bone marrow cells were collected from each treatment group and stained with indicated antibodies followed by flow cytometry analysis. The data are shown as mean values of three independent experiments with standard deviation. ** p<0.01. (D) Bone marrow mononuclear cells were isolated from B6 mice treated as above. To determine the protease activity, bone marrow supernatants harvested from indicated treatment groups were analyzed by zymogram analysis as described in the Methods section. The intensity of the zymogram bands (left panels) was analyzed utilizing densitometry and expressed as arbitrary units (right panels). Densitometric analyses are represented as the ratios to vehicle-treated group (CTL) set to 1. […] (E) Mice were treated as described in the legend to FIG. 13F. Expression levels of CXCR4 were determined in bone marrow (upper panel) and peripheral blood (lower panel) cells after gating on LSK or SLAM LSK subsets. Data are expressed as mean±SD from at least two independent experiments with four mice per group. […]

[7] = system: bone marrow homing of peripheral blood cells
[8] = system: osteoclasts; test: TRAP staining of femur sections; assay type: in vivo, mice; conditions: NAC treatment
[9] = system: RANKL; test: RANKL expression by Western blot and immunohistochemistry; assay type: in vivo, mice; conditions: NAC 100 mg/kg/day in comparison with UDP-Glc-treated animals
[10] = system: long-term repopulating HSPCs; test: Competitive repopulation and serial transplantation assays; assay type: in vivo, mice
Experimental: (§2) The ratio of CD45.1/CD45.2 cells in recipient's peripheral blood was determined at various times after transplantation.
as §2

[11] = system: neutrophil elastase (NE); test: Zymographic analysis of bone marrow supernatants; assay type: in vivo, mice
Experimental: (§3) FIG. 14A-14F. […] HSPC mobilization was assessed by measuring the numbers of LSK (upper left panel) and SLAM LSK (upper right panel) cells in peripheral blood. […] Representative images of TRAP staining from each group are shown (bottom panels). […] Shown are obtained from 6-8 weeks old animals. (C) Mice (B6) were injected as described in the legend to FIG. 11A. Bone marrow cells were collected from each treatment group and stained with indicated antibodies followed by flow cytometry analysis. The data are shown as mean values of three independent experiments with standard deviation. ** p<0.01. (D) Bone marrow mononuclear cells were isolated from B6 mice treated as above. To determine the protease activity, bone marrow supernatants harvested from indicated treatment groups were analyzed by zymogram analysis as described in the Methods section. The intensity of the zymogram bands (left panels) was analyzed utilizing densitometry and expressed as arbitrary units (right panels). Densitometric analyses are represented as the ratios to vehicle-treated group (CTL) set to 1. […] (E) Mice were treated as described in the legend to FIG. 13F. Expression levels of CXCR4 were determined in bone marrow (upper panel) and peripheral blood (lower panel) cells after gating on LSK or SLAM LSK subsets. Data are expressed as mean±SD from at least two independent experiments with four mice per group. […] Recipient mice were conditioned (11 Gy) 24 hours before injection of cells.

[12] = system: cathepsin G (CG); test: Zymographic analysis of bone marrow supernatants; assay type: in vivo, mice
Experimental: as §3

[13] = system: MMP-9; test: Zymographic analysis of bone marrow supernatants; assay type: in vivo, mice
Experimental: as §3

[14] = percentage of gated cells within the total number, UDP-Glc 200 mg/kg 6 days, G-CSF 300 μg/kg 4 days

## O=c1ccn([C@@H]2O[C@H](COP(=O)([O-])OP(=O)([O-])O[C@H]3O[C@H](CO)[C@@H](O)[C@H](O)[C@H]3O)[C@@H](O)[C@H]2O)c(=S)[nH]1.[Na+].[Na+] [MRS 2690]
[1]
  potency relative to UDP-Glc: approximately 7 fold

## O=c1ccn([C@@H]2O[C@H](COP(=O)(O)OP(=O)(O)OP(=O)(O)O)[C@@H](O)[C@H]2O)c(=O)[nH]1 [UTP, uridine-5′-triphosphate, reference compound]
[2]
  chemotactic migration of mouse LSK cells: only a slight increase for mouse LSK cell migration with no statistical significance

## O=c1ccn([C@@H]2O[C@H](COP(=O)(O)OP(=O)(O)O)[C@@H](O)[C@H]2O)c(=O)[nH]1 [UDP, uridine diphosphate]
[3]
  peripheral CD11b+, GR1+ and CD3+ cells in Csf3r−/− mice: minimally affected
[4]
  agonist activity at the human P2Y14 receptor: potent agonist of the human P2Y14 receptor
[5]; UDP 200 mg/kg s.c.
  LSK cells in the peripheral circulation, UDP alone: did not elicit any appreciable change in the number of LSK cells
[5]; UDP 200 mg/kg with UDP-Glc 200 mg/kg
  effect of UDP on UDP-Glc-induced LSK cell mobilization: antagonized UDP-Glc-induced LSK cell mobilization
[2]
  chemotactic migration of mouse LSK cells: could chemoattract LSK cells in vitro in the presence or absence of CXCL12

## CC(=O)N[C@@H](CS)C(=O)O [NAC, N-acetyl-L-cysteine]
[6]
  effect of NAC on UDP-Glc-induced CXCR4 expression: able to abrogate the increase of CXCR4 expression induced by UDP-Glc, albeit not completely
[7]
  effect of NAC pretreatment on homing of UDP-Glc-mobilized cells: inhibited by NAC pretreatment
[8]
  UDP-Glc-induced osteoclastogenesis with NAC: significantly suppressed with NAC treatment
[5]; NAC 100 mg/kg/day s.c.
  effect of NAC on UDP-Glc-induced LSK / SLAM LSK cell mobilization: significantly abrogate the LSK and SLAM LSK cell mobilization induced by UDP-Glc; also recorded: significantly suppressed by NAC treatment
[9]
  RANKL expression with NAC: notably lowered

B1: G-CSF: G-CSF (Neupogen, Amgen), most commonly used cytokine for mobilization of HSPCs (protein, chains of the INN, looked up)
chain: MTPLGPASSLPQSFLLKCLEQVRKIQGDGAALQEKLCATYKLCHPEELVLLGHSLGIPWAPLSSCPSQALQLAGCLSQLHSGLFLYQGLLQALEGISPELGPTLDTLQLDVADFATTIWQQMEELGMAPALQPTQGAMPAFASAFQRRAGGVLVASHLQSFLEVSYRVLRHLAQP
[10]; one month following transplantation
  competitive repopulation, UDP-Glc- vs G-CSF-mobilized cells, early: considerable competitive advantage over UDP-Glc-mobilized cells
[10]; serial transplantation, UDP-Glc (CD45.2) vs G-CSF (CD45.1)
  competition in secondary recipients, bone marrow cells: completely out-competed by the cells derived from UDP-Glc mobilization
[5]; [14]
  LSK cells in mobilized peripheral blood: 0.058%
  SLAM LSK cells in mobilized peripheral blood: 0.0014%
[11]
  level of NE: Elevated levels
[12]
  level of CG: Elevated levels
[13]
  level of MMP-9: Elevated levels
